In patent US20080176936A1, “Classes of Compounds that Interact with Integrins” (priority 2005, published 2008):

Legend:
[1] = target: T1, αllbβ3 integrin (Homo sapiens, UniProt P05106+P08514); experiment: ELISA: inhibition of binding of αllbβ3 integrin membrane preparation to coated extracellular matrix protein; conditions: human platelet membrane preparation
T1 construct: Human platelet membrane preparations were used as a source of αllbβ3 integrin; from tissue; host or cells: human platelets (membrane preparation)
T1 sequence (P08514 32-887 limits assumed): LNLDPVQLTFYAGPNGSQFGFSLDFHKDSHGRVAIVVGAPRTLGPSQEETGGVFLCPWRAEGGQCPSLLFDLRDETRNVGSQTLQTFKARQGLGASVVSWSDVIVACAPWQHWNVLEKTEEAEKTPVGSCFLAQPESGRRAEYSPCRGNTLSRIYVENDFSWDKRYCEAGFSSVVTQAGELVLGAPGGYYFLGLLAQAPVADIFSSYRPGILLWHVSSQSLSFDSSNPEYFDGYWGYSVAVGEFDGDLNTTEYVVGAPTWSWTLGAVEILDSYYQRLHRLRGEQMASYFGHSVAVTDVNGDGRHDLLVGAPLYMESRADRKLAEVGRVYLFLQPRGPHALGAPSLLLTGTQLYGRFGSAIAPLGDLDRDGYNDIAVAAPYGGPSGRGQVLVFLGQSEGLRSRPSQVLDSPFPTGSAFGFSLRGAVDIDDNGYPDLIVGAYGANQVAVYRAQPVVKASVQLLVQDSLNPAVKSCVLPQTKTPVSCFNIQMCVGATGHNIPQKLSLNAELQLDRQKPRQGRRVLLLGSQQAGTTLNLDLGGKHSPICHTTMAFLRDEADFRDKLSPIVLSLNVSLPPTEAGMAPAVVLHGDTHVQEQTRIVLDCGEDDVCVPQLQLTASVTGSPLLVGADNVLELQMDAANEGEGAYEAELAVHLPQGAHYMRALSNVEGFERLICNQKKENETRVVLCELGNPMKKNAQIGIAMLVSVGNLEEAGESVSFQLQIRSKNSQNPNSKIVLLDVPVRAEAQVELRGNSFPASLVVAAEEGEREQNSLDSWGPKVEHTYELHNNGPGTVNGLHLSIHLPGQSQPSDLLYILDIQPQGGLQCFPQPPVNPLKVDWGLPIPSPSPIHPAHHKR
T1 sequence (P08514 891-1039 partner limits assumed): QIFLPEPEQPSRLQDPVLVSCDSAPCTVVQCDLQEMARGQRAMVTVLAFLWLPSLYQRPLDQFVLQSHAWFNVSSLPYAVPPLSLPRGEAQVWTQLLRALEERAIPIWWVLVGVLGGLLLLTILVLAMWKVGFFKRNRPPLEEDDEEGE
T1 sequence (P05106 27-788): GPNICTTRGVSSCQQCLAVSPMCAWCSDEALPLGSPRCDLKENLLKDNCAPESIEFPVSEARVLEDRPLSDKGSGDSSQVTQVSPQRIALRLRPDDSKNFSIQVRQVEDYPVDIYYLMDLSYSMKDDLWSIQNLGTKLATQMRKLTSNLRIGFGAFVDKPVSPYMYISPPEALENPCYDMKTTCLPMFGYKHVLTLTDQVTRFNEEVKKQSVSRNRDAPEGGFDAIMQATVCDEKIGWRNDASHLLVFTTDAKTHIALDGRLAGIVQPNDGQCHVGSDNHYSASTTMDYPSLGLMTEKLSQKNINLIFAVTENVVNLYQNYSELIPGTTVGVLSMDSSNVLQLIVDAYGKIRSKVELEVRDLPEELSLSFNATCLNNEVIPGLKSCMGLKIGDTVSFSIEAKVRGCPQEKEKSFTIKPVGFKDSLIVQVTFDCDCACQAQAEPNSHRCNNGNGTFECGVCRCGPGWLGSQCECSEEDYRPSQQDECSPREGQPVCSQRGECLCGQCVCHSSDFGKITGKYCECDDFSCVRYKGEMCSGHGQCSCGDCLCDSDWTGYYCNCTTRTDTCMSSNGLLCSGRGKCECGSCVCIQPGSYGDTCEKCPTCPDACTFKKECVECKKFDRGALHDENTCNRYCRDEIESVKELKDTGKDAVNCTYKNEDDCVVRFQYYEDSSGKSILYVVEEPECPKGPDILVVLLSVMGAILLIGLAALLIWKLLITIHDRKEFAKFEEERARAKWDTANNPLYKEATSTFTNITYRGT
Method in brief: (§1)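 Integrin sources were human platelet membrane preparations for αIIbβ3 and WM-115 cells for αVβ3, each preincubated with test compound. Binding to fibrinogen- or vitronectin-coated plates (10 µg/well) was quantified with an anti-integrin β3 antibody and an HRP-coupled secondary antibody using colorimetric detection.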

[2] = target: T2, αVβ3 integrin (Homo sapiens, UniProt P05106+P06756); experiment: ELISA: inhibition of binding of αVβ3 integrin (source WM-115 cell line) to coated extracellular matrix protein; conditions: WM-115 cell line as integrin source
T2 construct: the cell line WM-115 was used as a source of αVβ3 integrin; endogenous in cells; host or cells: WM-115 cell line
T2 sequence (P06756 31-889 limits assumed): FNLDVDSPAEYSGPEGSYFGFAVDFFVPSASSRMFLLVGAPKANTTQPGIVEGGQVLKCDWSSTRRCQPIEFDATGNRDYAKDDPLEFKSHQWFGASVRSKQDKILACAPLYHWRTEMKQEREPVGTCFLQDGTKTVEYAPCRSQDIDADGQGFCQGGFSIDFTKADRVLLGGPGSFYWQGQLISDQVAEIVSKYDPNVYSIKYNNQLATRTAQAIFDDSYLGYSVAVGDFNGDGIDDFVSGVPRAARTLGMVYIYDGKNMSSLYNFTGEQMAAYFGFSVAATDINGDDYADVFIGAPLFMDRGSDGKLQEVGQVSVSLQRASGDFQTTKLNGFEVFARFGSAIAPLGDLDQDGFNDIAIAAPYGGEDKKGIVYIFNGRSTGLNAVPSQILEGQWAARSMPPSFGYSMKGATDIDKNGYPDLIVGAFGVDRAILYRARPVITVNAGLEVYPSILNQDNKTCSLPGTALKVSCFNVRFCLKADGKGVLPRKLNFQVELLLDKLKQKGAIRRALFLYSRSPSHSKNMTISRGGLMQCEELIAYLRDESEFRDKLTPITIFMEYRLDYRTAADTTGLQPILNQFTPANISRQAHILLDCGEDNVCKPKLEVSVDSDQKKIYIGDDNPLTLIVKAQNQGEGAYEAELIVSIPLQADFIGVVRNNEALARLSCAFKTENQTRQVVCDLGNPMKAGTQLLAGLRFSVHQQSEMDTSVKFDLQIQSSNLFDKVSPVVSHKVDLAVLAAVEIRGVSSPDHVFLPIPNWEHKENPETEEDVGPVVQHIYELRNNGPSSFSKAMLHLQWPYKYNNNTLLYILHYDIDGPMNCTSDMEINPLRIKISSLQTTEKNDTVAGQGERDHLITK
T2 sequence (P06756 891-1048 partner limits assumed): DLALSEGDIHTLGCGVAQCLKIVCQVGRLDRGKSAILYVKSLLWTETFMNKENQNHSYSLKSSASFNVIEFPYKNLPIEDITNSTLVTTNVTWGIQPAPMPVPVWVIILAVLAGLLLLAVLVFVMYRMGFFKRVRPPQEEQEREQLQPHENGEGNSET
T2 sequence (P05106 27-788): as the sequence (P05106 27-788) above
Method in brief: as §1

Structure (SMILES)	INHIBITION @ 250 uM RECEPTOR allBb3 SUBSTRATE FIBRINOGEN [1]	INHIBITION 250 uM RECEPTOR allBb3 SUBSTRATE VITRONECTIN [1]	INHIBITION 250 uM RECEPTOR aVb3 SUBSTRATE FIBRINOGEN [2]
COCC1OC(OCCNC(=N)N)C(NC(=O)c2ccccc2)C(OCc2ccc(C(=O)O)cc2)C1O (single isomer, unassigned) [Compound 114]	− (0% to 35% inhibition at 250 micromolar)	++ (61% to 80% inhibition at 250 micromolar)	− (0% to 35% inhibition at 250 micromolar)
COCC1OC(OCCNC(=N)N)C(NC(=O)c2ccccc2)C(OCc2ccc(C(=O)O)cc2)C1O (single isomer, unassigned) [Compound 115]	− (0% to 35% inhibition at 250 micromolar)	− (0% to 35% inhibition at 250 micromolar)	− (0% to 35% inhibition at 250 micromolar)
CCOC1OC(COCC(=O)O)C(O)C(OCc2ccccc2)C1NC(=O)CN (single isomer, unassigned) [Compound 116]	− (0% to 35% inhibition at 250 micromolar)	− (0% to 35% inhibition at 250 micromolar)	− (0% to 35% inhibition at 250 micromolar)
CCOC1OC(COCC(=O)O)C(O)C(OCc2ccccc2)C1NC(=O)CN (single isomer, unassigned) [Compound 117]	+ (36% to 60% inhibition at 250 micromolar)	+++ (81% to 100% inhibition at 250 micromolar)	− (0% to 35% inhibition at 250 micromolar)
CCOC1OC(COCC(=O)O)C(O)C(OCc2ccccc2)C1NC(=O)CNC(=N)N (single isomer, unassigned) [Compound 118]	− (0% to 35% inhibition at 250 micromolar)	+++ (81% to 100% inhibition at 250 micromolar)	− (0% to 35% inhibition at 250 micromolar)
CCOC1OC(COCC(=O)O)C(O)C(OCc2ccccc2)C1NC(=O)CNC(=N)N (single isomer, unassigned) [Compound 119]	− (0% to 35% inhibition at 250 micromolar)	+++ (81% to 100% inhibition at 250 micromolar)	− (0% to 35% inhibition at 250 micromolar)
CCOC1OC(COCC(=O)O)C(O)C(OCc2ccccc2)C1NC(=O)CCN (single isomer, unassigned) [Compound 120]	+ (36% to 60% inhibition at 250 micromolar)	+ (36% to 60% inhibition at 250 micromolar)	− (0% to 35% inhibition at 250 micromolar)
CCOC1OC(COCC(=O)O)C(O)C(OCc2ccccc2)C1NC(=O)CCNC(=N)N (single isomer, unassigned) [Compound 122]	++ (61% to 80% inhibition at 250 micromolar)	++ (61% to 80% inhibition at 250 micromolar)	− (0% to 35% inhibition at 250 micromolar)
COC1OC(COCC(=O)O)C(O)C(OCc2ccccc2)C1NC(=O)CCCN (single isomer, unassigned) [Compound 123]	+ (36% to 60% inhibition at 250 micromolar)	+++ (81% to 100% inhibition at 250 micromolar)	− (0% to 35% inhibition at 250 micromolar)
COC1OC(COCC(=O)O)C(O)C(OCc2ccccc2)C1NC(=O)CCCN (single isomer, unassigned) [Compound 124]	++ (61% to 80% inhibition at 250 micromolar)	+++ (81% to 100% inhibition at 250 micromolar)	+ (36% to 60% inhibition at 250 micromolar)
COC1OC(COCC(=O)O)C(O)C(OCc2ccccc2)C1NC(=O)CCCNC(=N)N (single isomer, unassigned) [Compound 125]	+ (36% to 60% inhibition at 250 micromolar)	+++ (81% to 100% inhibition at 250 micromolar)	+ (36% to 60% inhibition at 250 micromolar)
